The values that follow come from PMC6383948, “Evaluation of a class of isatinoids identified from a high-throughput screen of human kinase inhibitors as anti-Sleeping Sickness agents” (PLoS Neglected Tropical Diseases, 2019).

Values joined by “and” are separate entries in the source; they are usually repeats but may differ in a detail not shown here. Identical values can stand only once. Like-named read-outs stand apart in the source and are kept apart here.

Data set [1] in a line: Shake-flask octanol-water Log D7.4. It is filed as physicochemical. The following applies: pH 7.4, octanol-water shake-flask. On the procedure:
Shake-flask octanol-water distribution coefficient at pH 7.4 (Log D7.4). The aqueous solution used is 10 mM sodium phosphate pH 7.4 buffer. The method has been validated for Log D7.4 ranging from -2 to 5.0.

For data set [2], the system named is S. mansoni adults and somules. As to the kind of experiment: S. mansoni phenotypic assay, adults and somules (severity score). The following applies: for activity against S. mansoni adults and/or somules: 10 μM; for Adult severity score (10 μM): adults; for Adult severity score (10 μM) / Somule severity score (10 μM): score 0-4; for Somule severity score (10 μM): somules. The data set is classed as cell-based, Schistosoma mansoni (NMRI isolate). On the procedure:
Maintenance of the Schistosoma mansoni life cycle, preparation of somules (post-infective larvae) and adult worms (≥42-days-old), and co-incubation of these stages with test compounds were as described. An NMRI isolate of S. mansoni was used for all whole-organism screens.
Somules (40 units/well/96w round-bottomed plate) or adults (five paris/well/24w plate) were cultured in the presence of compounds at 10 µM and phenotypic changes observed as a function of time using an Zeiss Axiovert A1 inverted microscope (Table S4). A constrained nomenclature was used to describe the effects of compounds on parasites (changes in shape, motility and density). To generate a partially quantitative output for comparing drug effects, each descriptor was awarded a score of 1 and these were summed to a maximum score of 4 [7-10]: evidence of degeneracy or death was awarded the maximum score of 4. For adults specifically, damage to the tegument (outer surface) was also awarded a score of 4 based on the indication that damage to the patrasite’s surface is lethal in vivo [11]. Assays were performed twice and representative data are shown.

Data set [3] can be described thus: Mouse pharmacokinetics, blood and brain levels after IP dose. The data set is classed as in vivo. The following applies: for Brain level: LLOQ = 25 ng/g; for AUC0-t / Cmax / Tmax: blood. On the procedure:
NEU-4391 was administered intraperitoneally (IP) to two groups of female NMRI mice (Group 1 n = 3; Group 2 n = 6). The compound was prepared in 1% (v/v) DMSO:99% (v/v) 20% (w/v) sulfobutyl ether-beta-cyclodextrin (SBE-β-CD) (Captisol) in water and the dosing volume was 10 mL/kg for a total dose of 10 mg/kg. Food and tap water were available ad libitum. Following IP dosing, Group 1 blood samples were collected from the tail vein into capillary tubes containing K2EDTA at the following time-points: 0.0833, 0.25, 0.5, 1, 2, 4, 6, 8 and 24 h.
In order to obtain simultaneous blood and brain samples, Group 2 mice were placed under terminal anaesthetic (isoflurane) and blood samples (0.3 mL) collected from the retro-orbital sinus into K2EDTA tubes at 0.5 h (n = 3) and 4 h (n = 3) after compound administration. Immediately following blood sample collection, death was confirmed by cervical dislocation and the brain removed. Aliquots of each blood sample were diluted in an equal volume of water. Mouse brain samples were weighed, water was added at a 1/2 (w/v) ratio (brain/water), and then homogenized. Both blood and brain samples were stored -80°C until analysis.
Diluted blood and brain homogenates were processed under standard liquid-liquid extraction procedures using acetonitrile containing an internal standard (Nifedipine) and analyzed by LC-MS/MS. Non-compartmental analysis was performed using the Phoenix pharmacokinetic software version 1.4 (Certara) and Cmax, tmax, AUClast, AUC, and t1/2 were estimated.

The mark [4] stands for this setting: IP 10 mg/kg single dose, individual mice 001F-003F, 10 mg/kg.

As a reminder, the logD is lipophilicity at a set pH, counting ionised and neutral species. Higher therefore signals higher lipophilicity. Regarding `CNS(=O)(=O)c1ccc(N/N=C2\C(=O)Nc3ccccc32)cc1` [NEU-2124, (Z)-N-Methyl-4-(2-(2-oxoindolin-3-ylidene)hydrazinyl)benzenesulfonamide], the logD in data set [1] amounted to 2.8. Moreover, in data set [2], the “activity against S. mansoni adults and/or somules” value is “moderate and variable activity”. Besides, the “Adult severity score (10 μM)” value in data set [2] (3h), in data set [2] (6h), in data set [2] (24h) and in data set [2] (48h) was 2 each time. Besides, the results for the “Somule severity score (10 μM)” value in data set [2] (24h) and in data set [2] (48h) were 1 and 0, respectively.

One may read the Cmax as the peak of the concentration-time curve. As a reminder, the Tmax is the time from dosing to the highest level. On to `CNS(=O)(=O)c1ccc(N/N=C2\C(=O)Nc3cccc(C=C(C)C)c32)cc1` [NEU-4391, (Z)-N-Methyl-4-(2-(4-(2-methylprop-1-en-1-yl)-2-oxoindolin-3-ylidene)hydrazinyl)benzenesulfonamide], for which the Brain level entry was “<LLOQ” in data set [3] (0.5 h after IP 10 mg/kg, individual mice N1-N3) and “<LLOQ” in data set [3] (4.0 h after IP 10 mg/kg, individual mice N1-N3). The Blood level result in data set [3] (0.5 h after IP 10 mg/kg, individual mice N1-N3, LLOQ = 25 ng/mL, 10 mg/kg) is “<LLOQ and 43.3 ng/mL”; in data set [3] (4.0 h after IP 10 mg/kg, individual mice N1-N3, LLOQ = 25 ng/mL) it was “<LLOQ”. Besides, the “Peripheral blood concentrations after 1 h” value in data set [3] (IP 10 mg/kg, Fig 6A) is listed as “below the lower limit of quantitation”. Also, the “concentration in the brain” value in data set [3] (IP 10 mg/kg, all time points) is recorded as “below the limit of detection”. For the same compound, the AUC0-t in data set [3] (setting [4]) is 34.5 ng·h/mL and 39.2 ng·h/mL; in data set [3] (female, NMRI, mouse, whole blood, ip, 10 mg/kg, IP 10 mg/kg single dose, individual mice 001F-003F, read-out: AUC0-t), 39.3 ng·h/mL; in data set [3] (female, NMRI, mouse, whole blood, ip, 10 mg/kg, IP 10 mg/kg, mean of n = 3, read-out: AUC0-t (mean)), 37.7 ng·h/mL. For the same compound, the maximum concentration (Cmax) in data set [3] (setting [4]) is 45.0 ng/mL and 56.5 ng/mL; in data set [3] (female, NMRI, mouse, whole blood, ip, 10 mg/kg, IP 10 mg/kg single dose, individual mice 001F-003F, read-out: Cmax), 48.9 ng/mL; in data set [3] (female, NMRI, mouse, whole blood, ip, 10 mg/kg, IP 10 mg/kg, mean of n = 3, read-out: Cmax (mean)), 50.1 ng/mL; in data set [3] (female, NMRI, mouse, whole blood, ip, 10 mg/kg, IP 10 mg/kg, read-out: Cmax) it was 130 nM. Besides, the time of peak concentration (Tmax) in data set [3] (setting [4]) was 30 min; in data set [3] (female, NMRI, mouse, whole blood, ip, 10 mg/kg, IP 10 mg/kg single dose, individual mice 001F-003F, read-out: tmax), 15 min; in data set [3] (female, NMRI, mouse, whole blood, ip, 10 mg/kg, IP 10 mg/kg, n = 3, read-out: tmax (mean row, range)) it was 15 to 30 min. For the same compound, the concentration at 0.5 h turned out to be 50.7 ng/mL in data set [3] (female, NMRI, mouse, whole blood, ip, 10 mg/kg, 0.5 h after IP 10 mg/kg, individual mice N1-N3, LLOQ = 25 ng/mL, read-out: Blood level) and 47 ng/mL in data set [3] (female, NMRI, mouse, whole blood, ip, 10 mg/kg, 0.5 h after IP 10 mg/kg, read-out: Blood level (mean)).

Take `CN(C)S(=O)(=O)c1ccc(N/N=C2\C(=O)Nc3ccccc32)cc1` [NEU-2118, (Z)-N,N-Dimethyl-4-(2-(2-oxoindolin-3-ylidene)hydrazinyl)benzenesulfonamide]: in data set [1], the log distribution coefficient (logD) was found to be 3.4. In data set [2], the “activity against S. mansoni adults and/or somules” value is “moderate and variable activity”. For the same compound, the “Adult severity score (10 μM)” value in data set [2] (3h), in data set [2] (6h), in data set [2] (24h) and in data set [2] (48h) was 3 throughout. Further, the “Somule severity score (10 μM)” value in data set [2] (24h) and in data set [2] (48h) was 0 in each case.
